Measured values taken from ChEMBL document CHEMBL1146393, “Coriaheptocins A and B, the First Heptahydroxylated Acetogenins, Isolated from the Roots of Annona coriacea 1” (1997).
≈ marks a conversion by molar mass, not a printed value.

System: KB
Assay: Cytotoxicity against human KB cells
Format: functional
Settings: read-out: ED50 (the source's name)

| SMILES | EC50 [µg/mL] |
| --- | --- |
| CC(=O)O[C@H]1C(=O)[C@@]2(C)[C@H]([C@H](OC(=O)c3ccccc3)[C@]3(O)C[C@H](OC(=O)[C@H](O)[C@@H](NC(=O)c4ccccc4)c4ccccc4)C(C)=C1C3(C)C)[C@]1(OC(C)=O)CO[C@@H]1C[C@@H]2O [PACLITAXEL] | 0.02 (≈ 0.0234 µM) |
| CCCCCCCCCCCC[C@@H](O)[C@H](O)CC[C@H](O)C[C@@H](O)C[C@H](O)[C@@H]1CC[C@@H]([C@H](O)CC[C@@H](O)CC2=C[C@H](C)OC2=O)O1 [CORIAHEPTOCIN A] | 0.63 (≈ 0.977 µM) |
| CCCCCCCCCCCC[C@@H](O)[C@H](O)CC[C@H](O)C[C@@H](O)C[C@H](O)[C@@H]1CC[C@H]([C@H](O)CC[C@@H](O)CC2=C[C@H](C)OC2=O)O1 [CORIAHEPTOCIN B] | 0.18 (≈ 0.279 µM) |
